Test results taken from patent US20040132095A1, “Method of selecting antimicrobial agent and method of using the same” (priority 2001, published 2004).

Experiments:
[1] = test system: Chaetomium elatum; experiment: Data base search for antimicrobial agent, filamentous fungus (Example 6); format: cell-based
[2] = test system: slime; experiment: Laboratory torque type slime formation testing apparatus, artificial white water (Example 1); format: cell-based
Source text: A torque type slime formation testing apparatus was used, which is described in Japanese Patent Kokai Hei 9-75065 A. The testing apparatus is constructed from a stationary outer cylinder and a rotatable inner cylinder disposed concentrically with the outer cylinder leaving a free space therebetween for allowing flow of water therein while rotating the inner cylinder so as to permit to grow slime formed on the surface of the inner […]. To this testing apparatus, an artificial white water (containing 142 mg/liter of soluble starch and 11.6 mg/liter of ammonium sulfate and having a pH of 7.0) was supplied continuously at a temperature of 30° C. so as to maintain a residence time in the apparatus of 20 minutes, while adding thereto intermittently a slime control agent containing as the main component DBNPA (dibromonitrilopropionamide) three times a day each for a duration of 15 minutes at a contact concentration of 2.5 mg/liter. […] Each isolated strain was taken up on a platinum loop and was suspended in 0.4 ml of TE buffer solution (10 mM Tris-HCl, 1 mM EDTA, pH 8.0) retained allotted in a 1.5 ml microcentrifugal tube. Based on the above results, test experiment was carried out under the same experimental condition except that HPGHC was used as the slime control agent so as to maintain the concentration thereof in the system at 0.3 mg/liter. […] This HPGHC-treated slime collected at this occasion was tested by analysis of microbial biota thereof in the same manner as above, whereby Microbacterium sp. was not detected.

[3] = test system: Microbacterium sp. (microbe number 6354); experiment: Data base search for antimicrobial agent, confirmed by sterilizing experiment, dominant microbe of Example 1 slime; format: cell-based
[4] = test system: all the other isolated bacteria; experiment: Data base search / sterilizing experiment, other isolated strains of Example 1 slime; format: cell-based; conditions: strains isolated from slime of Example 1
[5] = test system: Deinococcus geothermalis; experiment: Data base search and sterilizing experiment, Example 2; format: cell-based; conditions: data base search, confirmed by sterilizing experiment
[6] = test system: pink-colored bacterial slime / Deinococcus geothermalis; experiment: Slime control treatment at paper manufacturing factory D, white water circulation system (Example 2); conditions: slime formed during long term slime control with DBNPA based agent
[7] = test system: slime; experiment: Monitoring demonstrators (slime testers) at paper machine of factory D (Example 3)
Procedure: Since the machine construction is similar, this machine would suffer from same trouble by occurrence of pink-colored slime after a prolonged operation. Therefore, monitoring of machine by prior practice was proceeded more […] the same time, the analysis of the microbial biota of white water same as in the above test method was performed at a more frequent interval, namely, at an interval of 7-14 days (with increase in the number of isolated strains to 48). […] On the other hand, white water devoid of DBNPA content was reserved by storing in a storage reservoir the white water taken from its supply line during a time interval discrepant from the DBNPA injection period, to preserve a reagent-free white water for the test.

[8] = test system: Deinococcus geothermalis; experiment: Analysis of microbial biota of white water of the machine, factory D (Example 3); conditions: DBNPA treatment
Source text: In the paper manufacturing factory D, another machine of a type similar to that used in Example 2 operating under conditions similar to those in Example 2 is installed adjacent to the machine of Example 2. In this machine, no occurrence of pink-colored […] recognized even at the occasion at which the pink-colored slime occurred in the machine of Example 2. Therefore, procedures corresponding to those in Example 1 were proceeded, wherein each 36 strains were isolated using agar medium and analysis of the microbial biota was carried out. Since a large number of strains are to be tested, each 16S rDNA obtained from each strain was treated by digestion with three kinds of restriction enzymes (BstUI, RsaI and HhaI) isolatedly to effect TRFLP analysis, in order to group preliminarily into classes of microbes of same reaction pattern, whereupon identification was effected based on the base sequence as identification parameter. It was recognized thereby that the occupation proportion of Deinococcus geothermalis in the isolated 36 strains was calculated to be only 2.7% (one strain). Since the machine construction is similar, this machine would suffer from same trouble by occurrence of pink-colored slime after a prolonged operation. […]

[9] = test system: microbe belonging to a genus Microbacterium (microbe number 2401); experiment: Data base search for antimicrobial agent, dominant microbe of yellow-colored slime (Example 4); format: cell-based
[10] = test system: Acidovorax temperans; experiment: Data base search and sterilizing experiment (Example 9); format: cell-based
[11] = test system: Gram-negative bacterium near-related to Riemerella; experiment: as above; format: cell-based
[12] = test system: Sphingomonas; experiment: as above; format: cell-based
[13] = test system: Rhizobium sp.; experiment: as above; format: cell-based
[14] = test system: Deinococcus geothermalis; experiment: as above; format: cell-based
[15] = test system: slime in CP tube; experiment: Slime control treatment of clear white water pit / CP line, paper machine Y (Example 11); conditions: intermittent introduction into the clear white water pit twice a day
Procedure: In a paper machine Y (a daily throughput of 410 tons, slightly coated paper, pH 7.5) of a paper manufacturing factory B, occurrence of light brown-colored defects having sizes of about 5 mm diameter was recognized frequently since 11th day from the start of operation, caused to result in cessation of operation. The defect portions were cut out from the paper and three cut out pieces (about 8.1 mg) were cut into 2 mm squares, which were placed in a 2 ml microcentrifugal tube made of plastic material. To this tube, 1 ml of a DNA-extracting buffer solution (100 mM Tris-Cl, 100 mM EDTA-Na, 100 mM Na2HPO4 and 1.5 M NaCl (pH 8.0)) was added, followed by standing still at room temperature for 30 minutes to cause the paper pieces to be impregnated sufficiently with the solution.
From the above analysis results, it was assumed that the defect was caused by introduction of the slime formed in CP tube into the papermaking process course upon detachment or the like. In the CP line, clear white water obtained by treating white water through a polydiscfilter was used, which had hitherto not been subjected to a slime control treatment. Therefore, treatment was now applied by intermittent introduction of a slime control agent containing as the main component 2,2-dibromo-3-nitrilopropionamide into the clear white water pit twice a day.

[16] = test system: Deinococcus geothermalis; experiment: Origin treatment of wet broke chest in paper manufacturing process, Deinococcus geothermalis among 48 isolated strains (Example 9)
Procedure: (§1) Samples were collected at various locations in the paper manufacturing process courses and, for each of them, total microbe cell count was measured by microscope direct count method after staining with DAPI, whereupon 48 strains were isolated by agar plate culture to determine the proportion of existence of Deinococcus geothermalis among the 48 strains based on the base sequence of 16S rDNA. Based on the results of the search for slime conrol agent, the treatment scheme was revised to the operation in which a slime control agent containing HPGHC as the effective component is added as the origin treating agent to the wet broke chest three times a day each at a dose rate of 25 milligrams per liter of the retained liquor (chest capacity), while supplying the white water circulation system with a slime control agent containing DBNPA as the effective component in the conventional manner. At the occasion of the second shut down after the revision of the treatment scheme and at an occasion directly before it, samples were collected at various locations in the paper manufacturing process courses, for which total microbe cell count and the proportion of existence of Deinococcus geothermalis were determined in the same way as the former practice. It was found thereby that the total microbe counts were unchanged and within the range of ordinary fluctuation, but Deinococcus geothermalis became undetectable.

[17] = test system: total microbe cells / slime; experiment: Origin treatment of wet broke chest in paper manufacturing process, total cell count and slime deposition (Example 9)
Procedure: as §1

[18] = test system: Ralstonia eutropha; format: cell-based; conditions: data base search
[19] = DBNPA 2 mg/l or even lower, contact time 30 minutes
[20] = after HPGHC origin treatment plus DBNPA
[21] = after HPGHC origin treatment plus DBNPA, Clear white water in clear white water pit
[22] = after HPGHC origin treatment plus DBNPA, Dry broke chest
[23] = after HPGHC origin treatment plus DBNPA, Wet broke chest
[24] = after HPGHC origin treatment plus DBNPA, White water in white water silo
[25] = second shut down after revision of the treatment scheme (HPGHC to wet broke chest plus DBNPA)

## O=C(CBr)OCC=CCOC(=O)CBr [BBAB, 1,4-bis-(bromoacetoxy)-2-butene]
[1]
  susceptibility of Chaetomium elatum: non-susceptible

## N#CC(Br)(Br)C(N)=O [DBNPA, 2,2-dibromo-3-nitrilopropionamide]
[2]; DBNPA 2.5 mg/liter contact concentration, three times a day for 15 minutes, 12 days, pH 7.0, 30° C.
  slime layer thickness: 119 μm
[3]; data base search, confirmed by sterilizing experiment
  resistance of Microbacterium sp. to the agent: resistance
[4]
  susceptibility of all other isolated bacterium strains: susceptible
[5]
  resistance of Deinococcus geothermalis: resistant
[6]
  occupation proportion of Deinococcus geothermalis in the entire microbe population: 46%
[7]; fifth test cycle, 47th day, No. 3 demonstrator inorganic bromine compound, No. 1 and No. 2 demonstrators DBNPA
  sign of growth of slime in demonstrator: sign of growth of slime was recognized
[7]; simulator supplied with DBNPA-containing agent, after the change of the machine agent
  deposited amount of slime in No. 2 demonstrator: increased gradually
[7]; simulator supplied with DBNPA-containing agent, day after the change of the antimicrobial agent
  occurrence of pink-colored slime in No. 2 demonstrator: visually recognized on the 14th day
[8]; fifth test cycle on the 47th day, 6 of 48 strains
  occupation proportion of Deinococcus geothermalis: 12.5%
[8]; up to the fourth test cycles, 48 strains
  occupation proportion of Deinococcus geothermalis: 2-4%
[9]
  resistance of dominant microbe (microbe number 2401): resistance
[1]
  susceptibility of Chaetomium elatum: non-susceptible
[10]; [19]
  living microbe cells extinct: 99%
[10]; data base search
  susceptibility of Acidovorax temperans: susceptible
[11]; [19]
  living microbe cells extinct: 99%
[11]; data base search
  susceptibility of Gram-negative bacterium near-related to Riemerella: susceptible
[12]; [19]
  living microbe cells extinct: 99%
[12]; data base search
  susceptibility of Shingomonas: susceptible
[13]; [19]
  living microbe cells extinct: 99%
[13]; data base search
  susceptibility of Rhizobium Sp.: susceptible
[14]; DBNPA 30 mg/l for 30 minutes
  sterilization of Deinococcus geothermalis: completely not sterilized
[14]; data base search
  resistance of Deinococcus geothermalis: resistant
[15]
  occurrence of defect on paper: removed
  occurrence of slime formation in the CP tube: decreased remarkably

## O=C(C(Cl)=NO)c1ccc(O)cc1 [HPGHC, 2-(p-hydroxyphenyl)glyoxylohydroximoyl chloride]
[2]; HPGHC 0.3 mg/liter
  Microbacterium sp. in treated slime (analysis of microbial biota): not detected
  amount of cling substance: remarkably decreased
[2]; HPGHC maintained at 0.3 mg/liter in the system, same test period (12 days)
  slime thickness: 3 μm
[3]; from data base for search for antimicrobial agent
  minimum effective concentration: 0.2 mg/L
[4]
  susceptibility of all other isolated bacterium strains: susceptible
[14]; HPGHC system internal concentration 20 mg/l for 20 minutes, data base
  sterilization of Deinococcus geothermalis: sterilized
[16]; [20]
  Deinococcus geothermalis in cling substance from the suction box: no Deinococcus geothermalis detected
[16]; [21]
  Number of strains of Deinococcus geothermal is (number of colonies among 48 strains): 0
[16]; [22]
  Number of strains of Deinococcus geothermal is (number of colonies among 48 strains): 0
[16]; [23]
  Number of strains of Deinococcus geothermal is (number of colonies among 48 strains): 0
[16]; [24]
  Number of strains of Deinococcus geothermal is (number of colonies among 48 strains): 0
[16]; [25]
  Deinococcus geothermalis in samples from process courses: undetectable
[17]; HPGHC 25 mg per liter to wet broke chest three times a day plus DBNPA to white water circulation system
  amount of deposition of slime: reduced considerably
[17]; [20]
  total microbe cell count in cling substance from the suction box: 3.5×10^9 cells per one gram of dry substance
[17]; [21]
  Total cell count: 3.1 × 10^7 cells/ml
[17]; [22]
  Total cell count: 6.0 × 10^7 cells/ml
[17]; [23]
  Total cell count: 5.3 × 10^7 cells/ml
[17]; [24]
  Total cell count: 4.8 × 10^7 cells/ml
[17]; [25]
  total microbe counts: unchanged

## OCl [sodium hypochlorite]
[18]
  ranking of effectiveness for registered Ralstonia eutropha: most effective
